Source: patent US20260248949A1, “COMPOSITION AND METHOD” (Optimus Salvus Limited, priority 2022, published 2026)

Conditions: fasted subjects, 100 mg CBD equivalent by mouth, 1 hour post ingestion
Description: Fasted subjects were administered either a single cannabidiol capsule (100 mg cannabidiol) or two cannabidiol/cyclodextrin capsules (total 100 mg cannabidiol equivalent) by mouth. The capsules were taken with a standard glass of water. Capillary blood was drawn one hour after ingestion and the quantity of cannabidiol and cannabidiol metabolites in blood analysed by a certified laboratory.

Structure (SMILES): C=C(C)[C@@H]1CCC(C)=C[C@H]1c1c(O)cc(CCCCC)cc1O [Plain CBD, cannabidiol]
- Concentration of CBD in capillary blood: 11.52 ng/mL
- Concentration of CBD-COOH in capillary blood: 13.14 ng/mL
- Concentration of CBD-OH in capillary blood: 1.85 ng/mL
- Concentration, Total (CBD and metabolites) in capillary blood: 26.77 ng/mL
